What all share (test): NCI-60 cell line screen, 48 h
Test [1] relates to HCC 2998.
Test [2] has as its system HOP-62.
Test [3] concerns OVCAR-3.
In test [4] the test system is SR.
Test [5] has as its system CCRF-CEM.
Test [6] deals with EKVX.
The subject of test [7] is COLO 205.
Test [8] deals with K562.
Test [9] has as its system OVCAR-4.
Test [10] relates to MOLT-4.
The subject of test [11] is UACC-62.
Test [12] relates to NCI-H460.
Test [13] has as its system NCI-H522.
Test [14] concerns SK-MEL-2.
Test [15] deals with A549.
Test [16] relates to UO-31.
The test system of test [17] is NCI-H226.
The test system of test [18] is HL-60.
Test [19] relates to ACHN.
Test [20] has as its system CAKI-1.

Molecules are shown by their SMILES. Values joined by “and” are separate entries in the source; they are usually repeats but may differ in a detail not shown here. Identical values can stand only once.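 Dose response: 5 concentrations. Exposure: 48 h. Format: 96-well plates. Endpoint: linear interpolation; highest concentration if not reached. GI50 = concentration required for 50% inhibition of growth.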 Active and inactive are the calls of the source. No stated cut-off is given here; in the data, active = GI50 up to about 1.1 µM and inactive = higher.

With `COc1ccc(OC(C)C(=O)O)c2c1CCCC2=O` (centres undefined), the GI50 in [1], in [2], in test [3], in test [4], in [5] and in [6] was > 100 µM (inactive) throughout. The GI50 in [7], in [8], in test [9], in test [10], in [11] and in test [12] was > 100 µM (inactive) throughout. Further, the GI50 in [13], in test [14], in [15], in [16], in [17] and in test [18] was > 100 µM (inactive) throughout. The GI50 in test [19] was > 100 µM (inactive).
As for `COC1/C=C/C(C)C(C(C)C(OC)C(C)CCC(=O)C(C)C(CC(=O)O)OC)OC(=O)/C=C/C=C(\C)CC(OC)C(OC)C2=CC(=O)O[C@@H](C(C)C(OC)CC(OC)/C=C/C(C)C(O)C1)[C@H]2O` (some centres undefined), the GI50 is 0.0631 µM (active) in test [1]; 0.121 µM (active) in test [2]; 0.188 µM (active) in test [3]; 0.0622 µM (active) in [4]; 0.0484 µM (active) in test [5]; 0.0474 µM (active) in test [6]. The GI50 was 0.0399 µM (active) in test [7]; 0.0564 µM (active) in test [8]; 0.153 µM (active) in test [9]; 0.106 µM (active) in [10]; 0.0479 µM (active) in test [11]; 0.0311 µM (active) in test [12]. The GI50 in [14] is 0.198 µM (active); in test [15], 0.0419 µM (active); in [16], 0.0382 µM (active); in test [17], 0.0336 µM (active); in test [18] it was 0.0237 µM (active); in [20] it was 0.033 µM (active). The GI50 in test [19] was 0.0473 µM (active).
In the case of `CC1=NN(C(=O)CC(=O)Nc2cccc(Cl)c2)C(=O)C1/N=N/c1ccc(S(N)(=O)=O)cc1` (centres undefined), the GI50 in test [1], in [2], in [3], in [4], in [6] and in [7] was > 100 µM (inactive) throughout. Also, the GI50 in test [9], in test [10], in test [11], in [12], in [13] and in test [14] was > 100 µM (inactive) throughout. In addition, the GI50 in test [15], in test [16], in [17], in test [20] and in test [19] was > 100 µM (inactive) in each case.
`CCN(CC)CCCn1cnc2ncccc2c1=O`: the GI50 is > 10 µM (inactive) in test [1]; > 100 µM (inactive) in [2]; > 100 µM (inactive) in test [3]; > 100 µM (inactive) in [4]; > 100 µM (inactive) in [5]; > 100 µM (inactive) in [6]. The GI50 in test [7], in [8], in test [9], in test [11], in [12] and in [13] was > 100 µM (inactive) throughout. Besides, the GI50 in test [14], in test [15], in test [16], in [17], in test [20] and in [19] was > 100 µM (inactive) in each case.
In the case of `Cc1ccc(S(=O)(=O)ON=C2CC(c3ccccc3)N(C)C(c3ccccc3)C2)cc1` (centres undefined), the GI50 is 16.6 µM (inactive) in test [1]; 29 µM (inactive) and 29.8 µM (inactive) in test [2]; 19.5 µM (inactive) and 20 µM (inactive) in [3]; 16.9 µM (inactive) and 21.5 µM (inactive) in test [4]; 18.5 µM (inactive) and 25.2 µM (inactive) in [5]; 36.2 µM (inactive) and 35.2 µM (inactive) in test [6]. The GI50 in [7] is 15.6 µM (inactive) and 14.8 µM (inactive); in [9], 18.7 µM (inactive) and 17.4 µM (inactive); in test [10] it was 17.9 µM (inactive) and 20.6 µM (inactive); in test [11], 16.1 µM (inactive); in [12], 19.2 µM (inactive) and 20.7 µM (inactive); in test [13], 14.2 µM (inactive) and 12.1 µM (inactive). For the same compound, the GI50 is 15 µM (inactive) in test [14]; 23.2 µM (inactive) and 20.6 µM (inactive) in test [15]; 15.6 µM (inactive) and 16.9 µM (inactive) in test [16]; 28.7 µM (inactive) and 23.6 µM (inactive) in [17]; 24.6 µM (inactive) and 15.6 µM (inactive) in test [20]; 19.8 µM (inactive) in test [19].
Consider `COC1C(OC(=S)Nc2ccccc2)c2ccccc2N1C(C)=O` (centres undefined), for which the GI50 was > 100 µM (inactive) in test [1]; > 100 µM (inactive) in test [2]; > 100 µM (inactive) in test [3]; 48.6 µM (inactive) in [4]; 64.4 µM (inactive) in [5]; > 100 µM (inactive) in test [6]. The GI50 in test [7] is > 100 µM (inactive); in test [8] it was > 100 µM (inactive); in test [9], 75.9 µM (inactive); in test [10] it was 44 µM (inactive); in test [11], 31.4 µM (inactive); in test [12] it was > 100 µM (inactive). In addition, the GI50 in [14] was 68.9 µM (inactive); in [15], 87.7 µM (inactive); in [16] it was 98.4 µM (inactive); in test [18] it was 72.8 µM (inactive); in test [20], 85.1 µM (inactive); in test [19], 29 µM (inactive).
`CSc1nc(SC)c2c(CO)c(Br)n(Cc3ccccc3)c2n1`: the GI50 in test [1] is 43.3 µM (inactive); in test [2], 27 µM (inactive); in test [3], 29.5 µM (inactive); in [4], > 100 µM (inactive); in [5], > 100 µM (inactive); in [6], 29.2 µM (inactive). Further, the GI50 in test [7] was > 100 µM (inactive); in test [9], 16.1 µM (inactive); in test [10], > 100 µM (inactive); in [11] it was 17.5 µM (inactive); in [12] it was 15.7 µM (inactive); in [13] it was 14.2 µM (inactive). Moreover, the GI50 is 25.7 µM (inactive) in test [14]; 29.8 µM (inactive) in [15]; 12.7 µM (inactive) in test [16]; 11.3 µM (inactive) in [17]; > 100 µM (inactive) in [18]; 10 µM (inactive) in [20]. In addition, in [19], the GI50 was 15.3 µM (inactive).
In the case of `C=CCSC1=N/C(=C\c2ccc(C)cc2)C(=O)N1CC=C`, the GI50 was 23.8 µM (inactive) in test [1]; 64.6 µM (inactive) in test [2]; 57.5 µM (inactive) in test [3]; 11.5 µM (inactive) in test [4]; 10.1 µM (inactive) in [6]; 20.6 µM (inactive) in [7]. For the same compound, the GI50 is 10.4 µM (inactive) in test [8]; 27.3 µM (inactive) in test [9]; 32.3 µM (inactive) in test [11]; 34.3 µM (inactive) in test [12]; 26.7 µM (inactive) in [13]; 25.8 µM (inactive) in test [14]. For the same compound, the GI50 in [15] was 21.3 µM (inactive); in [16] it was 22.9 µM (inactive); in test [18], 12.2 µM (inactive); in [20], 80 µM (inactive); in test [19] it was 36.1 µM (inactive).
Regarding `c1ccc2c(c1)ncn2C1CCCCO1` (centres undefined), the GI50 in [1], in [2], in test [3], in test [4], in [5] and in test [6] was > 100 µM (inactive) each time. For the same compound, the GI50 in test [7], in [8], in test [9], in test [10], in test [11] and in [13] was > 100 µM (inactive) in each case. Also, the GI50 in [14], in [15], in [16], in [17], in test [18] and in test [19] was > 100 µM (inactive) throughout.
As for `COC(=O)CCCCC/C(=C\C(=O)C(Cl)(Cl)Cl)OC`, the GI50 in test [1] is 15.9 µM (inactive); in [2], 33.7 µM (inactive); in [3] it was 26.6 µM (inactive); in test [4], 18.1 µM (inactive); in test [5] it was 15.4 µM (inactive); in test [6], 24.7 µM (inactive). Besides, the GI50 was 26.5 µM (inactive) in test [7]; 26.8 µM (inactive) in test [8]; 19.5 µM (inactive) in test [9]; 16.7 µM (inactive) in test [10]; 36 µM (inactive) in test [11]; 28.3 µM (inactive) in test [12]. The GI50 in [13] was 16.6 µM (inactive); in [14], 22.2 µM (inactive); in test [15] it was 45.6 µM (inactive); in test [16], 84.5 µM (inactive); in [18], 22.3 µM (inactive); in [20] it was 30.8 µM (inactive). Besides, the GI50 in [19] was 39.7 µM (inactive).
With `Cc1c2c(n(CC(c3ccccc3)c3ccccc3)c1C)NN=C(C#N)S2(=O)=O`, the GI50 in test [1] is > 100 µM (inactive); in test [2], > 100 µM (inactive); in test [3] it was > 100 µM (inactive); in [4], 35.2 µM (inactive); in test [6], > 100 µM (inactive); in [7], > 100 µM (inactive). Besides, the GI50 was > 100 µM (inactive) in test [9]; 37.7 µM (inactive) in test [10]; 97.7 µM (inactive) in test [11]; > 100 µM (inactive) in [12]; 45.6 µM (inactive) in test [13]; > 100 µM (inactive) in test [14]. The GI50 in test [15], in test [16], in test [17], in test [20] and in [19] was > 100 µM (inactive) throughout.

These data come from ChEMBL document CHEMBL1201862, “PubChem BioAssay data set” (2004).
